What was measured:
[1] = test system: Wnt pathway; assay: Cellular assay for Wnt pathway activity (luciferase reporter cell based assay); conditions: 24 h, HEK293 luciferase reporter cell line (ER-DSH, TCF dependent promoter), induced with estrogen (1 μM), read-out: 7df3 IC50
[2] = CLint (intrinsic clearance) assay, microsomal incubation; format: in vitro ADME, Human; conditions: human, liver microsomes, pH 7.4, human liver microsomes 0.5 mg/mL protein, NADPH, 37° C., up to 30 min
Description: 2. CLint (Intrinsic Clearance) Assay
A Tecan Genesis workstation (RWS ASY 150/8) was used to perform the microsomal incubations. Analysis was carried out using a Waters ACQUITY UPLC system coupled to an ABSciex API3000 mass spectrometer. Data analysis was performed using Assay Explorer (Symyx).
0.1 M potassium phosphate buffer pH 7.4 containing 1 mM MgCl2
15 mM NADPH in phosphate buffer
5.0 mg protein/mL liver microsomes in phosphate buffer
Each experiment consists of 12 test and 2 reference compounds. The reference compounds are incubated as a cocktail.
Dilution of test compounds was done in 2 steps from a 10 mM DMSO stock solution. First 4 μL stock solution was added to 196 μL of 20% DMSO in potassium phosphate buffer pH 7.4. In a second step 10 μL of the first dilution were added to […] potassium phosphate buffer and 100 μL internal standard solution to a final concentration of 0.8 μM. 100 μL of the final compound dilution were aliquoted into a 96 deep well plate. 12.5 μL liver microsomes were added to each well (0.5 mg/mL final protein concentration) and the samples preincubated for 5 min at 37° C. and 800 rpm agitation.
After the preincubation, 250 μL cold acetonitrile were added to the 0 min samples to prevent a reaction. Following this, 12.5 μL NADPH solution were added to all wells to start the incubation, with the exception of the 0 min and 30 min controls without cofactor, where the NADPH was substituted for phosphate buffer.
The incubations were stopped after 5, 10, 20 and 30 min by adding 250 μL cold acetonitrile to the individual wells.
The quenched samples were then centrifuged at 4000 g for 1 h at 4° C. 100 μL of the supernatant were transferred into 96 well plates for analysis.
The metabolic stability of each compound was determined by measurement of the change in LC-MS/MS peak area over time. Assay Explorer software was used to automatically calculate the slope k of the decline. The intrinsic clearance (CLint) of each compound was then calculated according to the formula: CLint(μL/min/mg protein)=k1000/protein concentration.
CLint is shown for each compound in Table 3 below.

Which IC50 [1] does the source give for `CN1C(=O)Cc2cc(-c3cncc(Cl)c3N3CCC4(CC3)CC(=O)NC4=O)ccc21` [Example 65, 8-[3-Chloro-5-(1-methyl-2-oxo-2,3-dihydro-1H-indol-5-yl)-pyridin-4-yl]-2,8-diaza-spiro[4.5]decane-1,3-dione] here?
Its IC50 is 21 nM.

And the microsomal CLint at 0.8 μM [2]?
The microsomal CLint at 0.8 μM was less than 10 µL/min/mg.

With `O=C1NCC2(CCN(c3c(Cl)cncc3-c3ccc(-c4cnn([C@H]5CCC[C@@H]5O)c4)cc3)CC2)O1` (racemic) [Example 57, 8-(3-Chloro-5-{4-[1-((1S,2S)-2-hydroxy-cyclopentyl)-1H-pyrazol-4-yl]-phenyl}-pyridin-4-yl)-1-oxa-3,8-diaza-spiro[4.5]decan-2-one] as the compound, how does the IC50 [1] read?
Its IC50 is 18 nM.

And the microsomal CLint at 0.8 μM [2]?
Its microsomal CLint at 0.8 μM is 32 µL/min/mg.

What does the source list for `CN1c2ccc(-c3cncc(Cl)c3N3CCC4(CC3)NCNC4=O)cc2CS1(=O)=O` [Example 75, 8-[3-Chloro-5-(1-methyl-2,2-dioxo-2,3-dihydro-1H-2l6-benzo[c]isothiazol-5-yl)-pyridin-4-yl]-1,3,8-triaza-spiro[4.5]decan-4-one]?
IC50 [1]: 4.7 nM; microsomal CLint at 0.8 μM [2]: 20 µL/min/mg

Which results are given for `O=C1NCC2(CCN(c3c(Cl)cncc3-c3ccc4cnccc4c3)CC2)O1` [Example 50, 8-(3-Chloro-5-isoquinolin-6-yl-pyridin-4-yl)-1-oxa-3,8-diaza-spiro[4.5]decan-2-one]?
IC50 [1]: 23 nM; microsomal CLint at 0.8 μM [2]: 28 µL/min/mg

With `O=C1NCC2(CCN(c3c(Cl)cncc3-c3ccc(-c4cnn(CCO)c4)cc3)CC2)O1` [Example 15, 8-(3-Chloro-5-{4-[1-(2-hydroxy-ethyl)-1H-pyrazol-4-yl]-phenyl}-pyridin-4-yl)-1-oxa-3,8-diaza-spiro[4.5]decan-2-one] as the compound, how does the IC50 [1] read?
Its IC50 is 17 nM.

What about the microsomal CLint at 0.8 μM [2] of the same compound?
Its microsomal CLint at 0.8 μM is less than 10 µL/min/mg.

Which results are given for `CN1C(=O)Cc2cc(-c3cncc(Cl)c3N3CCC4(CC3)CNC(=O)O4)ccc21` [Example 11, 8-[3-Chloro-5-(1-methyl-2-oxo-2,3-dihydro-1H-indol-5-yl)-pyridin-4-yl]-1-oxa-3,8-diaza-spiro[4.5]decan-2-one]?
IC50 [1]: 33 nM; microsomal CLint at 0.8 μM [2]: < 10 µL/min/mg

Which IC50 [1] does the source give for `CC(C)(C)N1Cc2cc(-c3cncc(Cl)c3N3CCC4(CCNC4=O)CC3)ccc2S1(=O)=O` [Example 26, 8-[3-(2-tert-Butyl-1,1-dioxo-2,3-dihydro-1H-1l6-benzo[d]isothiazol-5-yl)-5-chloro-pyridin-4-yl]-2,8-diaza-spiro[4.5]decan-1-one] here?
Its IC50 is 20 nM.

What about the microsomal CLint at 0.8 μM [2] of the same compound?
Its microsomal CLint at 0.8 μM is 30 µL/min/mg.

Which IC50 [1] does the source give for `O=C1NCC2(CCN(c3c(Cl)cncc3-c3ccc(-c4cnn([C@@H]5CCC[C@H]5O)c4)cc3)CC2)O1` [Example 63, 8-(3-Chloro-5-{4-[1-((1R,2R)-2-hydroxy-cyclopentyl)-1H-pyrazol-4-yl]-phenyl}-pyridin-4-yl)-1-oxa-3,8-diaza-spiro[4.5]decan-2-one] here?
The IC50 was 30 nM.

And the microsomal CLint at 0.8 μM [2]?
Its microsomal CLint at 0.8 μM is 29 µL/min/mg.

What does the source list for `O=C1NCCNC12CCN(c1c(Cl)cncc1-c1ccc3oc(=O)[nH]c3c1)CC2` [Example 72, 9-[3-Chloro-5-(2-oxo-2,3-dihydro-benzooxazol-5-yl)-pyridin-4-yl]-1,4,9-triaza-spiro[5.5]undecan-5-one]?
IC50 [1]: 35 nM; microsomal CLint at 0.8 μM [2]: < 10 µL/min/mg

For `CN1C(=O)Cc2ccc(-c3cncc(Cl)c3N3CCC4(CC3)NCNC4=O)cc21` [Example 74, 8-[3-Chloro-5-(1-methyl-2-oxo-2,3-dihydro-1H-indol-6-yl)-pyridin-4-yl]-1,3,8-triaza-spiro[4.5]decan-4-one], which IC50 [1] is on record?
Its IC50 is 20 nM.

And the microsomal CLint at 0.8 μM [2]?
The microsomal CLint at 0.8 μM was 20 µL/min/mg.

With `C[C@H]1NC(=O)OC12CCN(c1c(Cl)cncc1-c1ccc3c(c1)CS(=O)(=O)N3C)CC2` [Example 99, (R)-8-[3-Chloro-5-(1-methyl-2,2-dioxo-2,3-dihydro-1H-2l6-benzo[c]isothiazol-5-yl)-pyridin-4-yl]-4-methyl-1-oxa-3,8-diaza-spiro[4.5]decan-2-one] as the compound, how does the IC50 [1] read?
The IC50 was 5.2 nM.

What about the microsomal CLint at 0.8 μM [2] of the same compound?
The microsomal CLint at 0.8 μM was 39 µL/min/mg.

What does the source list for `CN1c2ccc(-c3cncc(Cl)c3N3CCC4(CC3)CC(=O)NC4=O)cc2CS1(=O)=O` [Example 87, 8-[3-Chloro-5-(1-methyl-2,2-dioxo-2,3-dihydro-1H-2l6-benzo[c]isothiazol-5-yl)-pyridin-4-yl]-2,8-diaza-spiro[4.5]decane-1,3-dione]?
IC50 [1]: 0.16 nM; microsomal CLint at 0.8 μM [2]: 13 µL/min/mg

— patent US9926319B2, “Pyridyl piperidines” (MERCK PATENT GMBH, priority 2014, dated 2018)
